Reference: PMC7822874, “Chemoprotective antimalarials identified through quantitative high-throughput screening of Plasmodium blood and liver stage parasites” (Scientific Reports, 2021)

These compounds were tested on Plasmodium falciparum Dd2 asexual blood stage parasites (assay: microbe, parasite or virus in culture). Conditions: Plasmodium falciparum, DD2, Erythrocyte, 72 h.
Design: species or system Plasmodium falciparum Dd2 in human erythrocytes; single determination (one 11-point concentration-response curve)

| SMILES | AC50 [µM] |
| --- | --- |
| Oc1cc2c(cc1CN1CCN(c3ccccc3)CC1)CCC2 [MLS000058156-01] | 3.35 |

Same assay, conditions: Plasmodium falciparum, DD2, Erythrocyte, 72 h; read-out: AC50

| SMILES | AC50 [µM] |
| --- | --- |
| O=C(CN1CCC(n2nnc3cc(F)ccc32)CC1)Nc1ccccc1N1CCOCC1 [MLS000030185-01] | 5.31 |
| CCc1c(C)[nH]c2ccccc2c1=O [MLS000030676-01] | 10.6 |
| CC(=O)Nc1cc(-c2ccccc2)ccc1O [MLS000030849-01] | 4.73 |
| Oc1ccc(CN2CCCCC2)nc1-c1ccccc1 [MLS000031925-01] | 0.531 |
| O=C(Nc1cnc2ccccc2c1)c1cccc(-n2cnnn2)c1 [MLS000032104-01] | 2.66 |
| CCn1c(SCc2ccc(C#N)cc2)nnc1-c1ccc(S(=O)(=O)N2CCCCC2)cc1 [MLS000032588-01] | 6.68 |
| Cc1cc(Nc2ccc(C)c(F)c2)n2ncnc2n1 [MLS000033310-01] | 9.44 |
| Cc1ccc(NC(=O)N(Cc2ccc3c(c2)OCO3)Cc2cc3cc4c(cc3[nH]c2=O)OCCO4)cc1 [MLS000033889-01] | 6.68 |
| C1CCC(CNc2c3c(nc4nnnn24)CCCC3)CC1 [MLS000034780-01] | 13.3 |
| CSc1nnc(-c2cc3ccccc3cc2O)n1C [MLS000035069-01] | 7.5 |
| CCn1nnc(NC(=O)c2ccc(C(C)(C)C)cc2)n1 [MLS000035112-01] | 9.44 |
| COc1cc(OC)cc(-c2cc3nc4c(c(N5CCN(c6ncccn6)CC5)n3n2)CCCC4)c1 [MLS000035210-01] | 4.22 |
| CCOC(=O)c1c(CN(C)C)oc2cc(CN(C)C)c(O)c(CSc3ccccc3)c12 [MLS000038262-01] | 0.596 |
| COc1ccc(CC(=O)NCc2ccccn2)cc1OC [MLS000039135-01] | 7.5 |
| CC1(c2ccccn2)Nc2ccccc2-c2nc3ccccc3n21 (stereo not shown) [MLS000039430-01] | 5.31 |
| COc1ccc(CCn2c(=N)c(C(=O)NCc3ccco3)cc3c(=O)n4cccc(C)c4nc32)cc1 [MLS000040240-01] | 1.68 |
| CCOC(=O)c1nnn(-c2nonc2N)c1-c1ccc(OC)cc1 [MLS000043574-01] | 5.31 |
| CC(C)(C)Nc1nc(NC(C)(C)C)nc(-n2ccnc2)n1 [MLS000044025-01] | 4.73 |
| CCOC(=O)c1ccc(Nc2nc(=O)c(C(C)(C)C)n[nH]2)cc1 [MLS000044326-01] | 13.3 |
| CCOC(=O)C1CCN(c2cc(=O)n(-c3ccccc3Cl)c(=O)[nH]2)CC1 [MLS000045867-01] | 8.41 |
| O=C(NCc1ccco1)c1cc(-c2ccncc2)nc2ccccc12 [MLS000046192-01] | 5.96 |

| SMILES | AC50 [µM] |
| --- | --- |
| CCC(=O)N1CCc2cc(Br)cc(S(=O)(=O)C3(C(=O)OC)CC3)c21 [MLS000047144-01] | 3.76 |
| COc1ccccc1NC(=O)CN1CCN(C2c3ccccc3-c3ccccc32)CC1 [MLS000047428-01] | 15 |
| O=C(CN1CCN(C(=O)c2ccco2)CC1)Nc1cc(C(F)(F)F)ccc1Cl [MLS000047443-01] | 7.5 |
| COc1cc(C2NCc3ccccc3-n3cccc32)ccc1O (stereo not shown) [MLS000047988-01] | 2.66 |
| Cc1ccc(Nc2cc(C)nn2-c2nc(C)cc(C)n2)cc1 [MLS000048464-01] | 6.68 |
| Clc1ccc2c(N3CCCC3)ccnc2c1 [MLS000049600-01] | 3.76 |
| O=C1Nc2ccccc2C12Nc1ccccc1-c1nc3ccccc3n12 (stereo not shown) [MLS000051512-01] | 6.68 |
| c1ccc(Cn2c(Sc3nnnn3-c3ccccc3)nnc2-c2ccccc2)cc1 [MLS000052243-01] | 7.5 |
| Cc1cc(C(=O)CN2C(=O)NC(C)(c3cccc(Br)c3)C2=O)c(C)n1Cc1ccco1 (stereo not shown) [MLS000055137-01] | 13.3 |
| Cc1cc(C(=O)CN2C(=O)NC(c3ccccc3)(c3ccccc3)C2=O)c(C)n1Cc1ccco1 [MLS000056256-01] | 8.41 |
| CCN(CC)c1ccc2oc(=O)c(C)nc2c1 [MLS000062529-01] | 6.68 |
| CC1Cn2c(nnc2-c2cc3ccccc3cc2O)S1 (stereo not shown) [MLS000066435-01] | 4.73 |
| CCCc1c(C)[nH]c2ccccc2c1=O [MLS000067721-01] | 7.5 |
| Cc1cccc2cc(CN(Cc3ccco3)C(c3nnnn3CCc3ccccc3)C(C)C)c(O)nc12 (stereo not shown) [MLS000072528-01] | 10.6 |
| O=C(Nc1ccc(N2CCOCC2)c(Cl)c1)c1nc[nH]n1 [MLS000072688-01] | 9.44 |
| CC(C)(C)n1nnnc1C(c1cc2cc3c(cc2[nH]c1=O)OCO3)N1CCN(c2ccccc2)CC1 (stereo not shown) [MLS000072810-01] | 7.5 |
| CCC(C)(C)n1nnnc1C(c1cc2cccc(C)c2nc1O)N1CCN(C(=O)c2ccco2)CC1 (stereo not shown) [MLS000073230-01] | 6.68 |
| Cc1ccc(C(=O)c2cc(C)sc2NC(=O)CN2CCN(C(=O)c3ccco3)CC2)cc1 [MLS000073677-01] | 7.5 |
| Cc1nn(C(=N)S)c(O)c1C(c1ccccc1)C(C#N)C#N (stereo not shown) [MLS000077118-01] | 6.68 |
| COc1ccc(N2CCN(C(c3cc4ccc(C)cc4nc3O)c3nnnn3C3CCCC3)CC2)cc1 (stereo not shown) [MLS000077379-01] | 6.68 |
| COc1ccccc1N1CCN(C(c2cc3ccc(C)cc3nc2O)c2nnnn2C2CCCC2)CC1 (stereo not shown) [MLS000077380-01] | 7.5 |

| SMILES | AC50 [µM] |
| --- | --- |
| CCN(CC)CCNC(O)=C1C(=O)c2cccc3c2N(CCC3)C1=O [MLS000078957-01] | 10.6 |
| CC1(c2ccccc2)CC(c2ccccc2)=Nc2nonc2N1 (stereo not shown) [MLS000079110-01] | 5.31 |
| CCOC(=O)C1=Nc2ccccc2C1=[N+]=[N-] [MLS000079382-01] | 4.22 |
| CNc1cc(C)nc(-n2nc(C)cc2C)n1 [MLS000079642-01] | 8.41 |
| Cc1nn2c3c(cnc2c1-c1ccccc1)C(=O)CC(c1ccco1)C3 (stereo not shown) [MLS000080714-01] | 9.44 |
| Cc1ccccc1-n1c(=C(C#N)C(=O)Nc2ccccc2)sc(=Cc2ccco2)c1=O [MLS000081502-01] | 5.31 |
| O=C(Nc1cccnc1)c1cn(-c2ccccc2)nc1-c1cccs1 [MLS000081870-01] | 2.37 |
| Cc1nn(-c2ccccc2)c2c1C(O)n1c(nc3ccccc31)S2 (stereo not shown) [MLS000081954-01] | 5.31 |
| C=C(C)COc1ccc(-c2n[nH]cc2Oc2ccccc2OCC)c(O)c1 [MLS000083085-01] | 2.99 |
| COc1ccc(OC)c(NC(=O)c2cc(-c3cc(Cl)ccc3O)n[nH]2)c1 [MLS000083936-01] | 4.73 |
| O=c1c2ccccc2sc2nc(C3CCCCC3)n(Cc3ccco3)c(=O)c12 [MLS000084065-01] | 7.5 |
| Cc1ccc(O)c(CN2CCN(c3ccccc3)CC2)c1 [MLS000084753-01] | 2.99 |
| CC(=O)N1CCc2cc(Br)cc(S(=O)(=O)N3CCCCCC3)c21 [MLS000086258-01] | 5.31 |
| Cn1cc(C(=O)NCCN2CCN(c3cccc(Cl)c3)CC2)c2c3ccccc3n(C)c2c1=O [MLS000086993-01] | 4.73 |
| Cc1cc(NC(=O)c2cc(-c3ccco3)on2)nn1Cc1ccc(Cl)cc1 [MLS000087231-01] | 8.41 |
| O=C(Nc1ccccc1C(F)(F)F)c1cc(-c2ccccc2O)on1 [MLS000087293-01] | 2.99 |
| Cc1cc(C(=O)Nc2cnn(Cc3ccc(Cl)cc3Cl)c2)no1 [MLS000087313-01] | 9.44 |
| CC(C)c1cc(C(=O)Nc2cc(Cl)ccc2O)no1 [MLS000087324-01] | 6.68 |
| Cc1occc1C(=O)N1CCN(C(c2ccccc2)c2ccccc2)CC1 [MLS000089076-01] | 10.6 |
| CCOc1cc(C2CC(=O)NC3=C2C(=O)C(C(=O)OC)C(C)C3)cc(Br)c1O (stereo not shown) [MLS000090952-01] | 6.68 |
| Cc1cc(NC(=O)CSc2ccc3nnc(-c4cccc(F)c4)n3n2)no1 [MLS000093339-01] | 5.96 |
